Patent US20150209379A1, “TREATMENT OF PROSTATE CANCER AND HEMATOLOGIC NEOPLASMS” (THOMAS JEFFERSON UNIVERSITY, priority 2012, published 2015)

molecular target: T1, Stat5a (Homo sapiens, UniProt P42229); experiment: Stat5a dimerization (FLAG-/MYC-tagged Stat5a co-immunoprecipitation) in PC-3 cells; assay type: cell-based; design: expressed in transfected cells; host or cells: PC-3 human prostate cancer cells; conditions: 2 hours pretreatment, then hPrl 10 nM 30 minutes
T1 sequence (P42229 1-794): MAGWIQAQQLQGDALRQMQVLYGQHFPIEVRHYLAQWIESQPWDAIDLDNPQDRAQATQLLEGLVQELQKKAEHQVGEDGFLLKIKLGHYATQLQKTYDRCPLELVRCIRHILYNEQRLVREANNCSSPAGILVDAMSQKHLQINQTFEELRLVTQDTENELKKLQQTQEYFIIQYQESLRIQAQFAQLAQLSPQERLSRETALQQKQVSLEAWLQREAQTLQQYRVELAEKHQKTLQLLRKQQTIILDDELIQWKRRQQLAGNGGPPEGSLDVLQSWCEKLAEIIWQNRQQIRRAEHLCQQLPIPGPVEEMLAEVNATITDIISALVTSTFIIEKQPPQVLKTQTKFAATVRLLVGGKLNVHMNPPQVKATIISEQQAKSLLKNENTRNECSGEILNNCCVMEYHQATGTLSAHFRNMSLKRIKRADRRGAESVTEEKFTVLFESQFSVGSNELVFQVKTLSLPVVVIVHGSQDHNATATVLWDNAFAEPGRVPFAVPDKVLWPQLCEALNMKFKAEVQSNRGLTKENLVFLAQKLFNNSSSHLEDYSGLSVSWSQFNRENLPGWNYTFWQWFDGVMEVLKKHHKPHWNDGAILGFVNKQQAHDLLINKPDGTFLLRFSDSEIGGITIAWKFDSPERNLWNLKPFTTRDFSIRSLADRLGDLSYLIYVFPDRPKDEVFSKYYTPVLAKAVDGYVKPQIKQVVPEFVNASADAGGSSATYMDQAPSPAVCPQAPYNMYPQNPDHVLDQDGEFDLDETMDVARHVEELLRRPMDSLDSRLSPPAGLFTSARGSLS
Procedure: (§1) FLAG-tagged Stat5a and MYC-tagged Stat5a were generated by standard molecular biology cloning techniques. Plasmid pCMV3-FLAG-Stat5a, pCMV3-MYC-Stat5a and pPr1R were co-transfected using FuGENE6 (Roche) into PC-3 cells (2 μg of each plasmid per 1×10^7 cells). The cells were starved for 20 hours, pretreated with test compound for 2 hours, then stimulated with hPrl (10 nM) in RPMI 1640 without serum for 30 minutes. The cell lysates were immunoprecipitated with 25 μl anti-FLAG M2 […] affinity gel (2 μg/ml, Sigma), anti-MYC pAb (1 μg/ml, Upstate) or normal rabbit serum (NRS). The primary antibodies were used in the immunoblottings at the following concentrations: anti-FLAG pAb (1:1000; Stratagene), anti-MYC mAb (1:1000; Sigma), anti-Stat5a/b mAb (1:250) (Transduction Laboratories) detected by horseradish peroxidase-conjugated secondary antibodies. The results are shown in FIG. 3A for Compound 1 and FIG. 3B for Compound 2.
Lanes 1, 2, 4, 6 and 8 represent cells stimulated with human prolactin (Prl) for 30 minutes which induces dimerization of Stat5. Two hours prior to Prl-stimulation, the cells had been treated with DMSO (lanes 1-4), the control compound C5 (lanes 7 and 8) and either Compound 1 (lanes 5 and 6 in FIG. 3A) or Compound 2 (lanes 5 and 6 in FIG. 3B). […] It should be noted the drug effect in this study was not due to cell apoptosis induction, as the treatment time was only 2 hours. Treatment of at least 48 hours is required for the compound to induce prostate cancer cell apoptosis.
as §1, with “and pPrlR” for “and pPr1R”, “hours, pre-treated” for “hours, pretreated”, “with NBPP” for “with test compound”, “2 h,” for “2 hours,”, “antibodies.” for “antibodies. The results are shown in FIG. 3A for Compound 1 and FIG. 3B for Compound 2.”
Lanes 1, 2, 4, 6 and 8 represent cells stimulated with human prolactin (Prl) for 30 minutes which induces dimerization of Stat5. Two hours prior to Prl-stimulation, the cells had been treated with DMSO (lanes 1-4), the control compound C5 (lanes 5 and 6) or NBPP (lanes 7 and 8) to test whether the Stat5a/b-inhibitor compound, NBPP, would be able to inhibit dimerization of StatS. […] It should be noted the drug effect in this study was not due to cell apoptosis induction, as the treatment time was only 2 hours. Treatment of at least 48 hours is required for the compound to induce prostate cancer cell apoptosis.
FLAG-tagged Stat5a and MYC-tagged Stat5a were generated by standard molecular biology cloning techniques.as follows. […] The primary antibodies were used in the immunoblottings at the following concentrations: anti-FLAG pAb (1:1000; Stratagene), anti-MYC mAb (1:1000; Sigma), anti-Stat5a/b mAb (1:250) (Transduction Laboratories) detected by horseradish peroxidase-conjugated secondary antibodies. […]

Compound	effect on Stat5a dimerization
OC[C@H]1O[C@@H](n2cnc3c(N4CCc5ccccc5C4)ncnc32)[C@H](O)[C@@H]1O [Compound 1, (2R,3R,4S,5R)-2-(6-(3,4-Dihydroisoquinolin-2(1H)-yl)-9H-purin-9-yl)-5-(hydroxymethyl)tetrahydrofuran-3,4-diol]	effectively inhibited Stat5a dimerization
OC[C@H]1O[C@@H](n2cnc3c(NNc4ccccc4)ncnc32)[C@H](O)[C@@H]1O [Compound 2, (2R,3S,4R,5R)-2-(hydroxymethyl)-5-(6-(2-phenylhydrazinyl)-9H-purin-9-yl)tetrahydrofuran-3,4-diol]	effectively inhibited Stat5a dimerization
OC[C@H]1O[C@@H](n2cnc3c(NCc4ccccc4)ncnc32)[C@H](O)[C@@H]1O [Compound N6BA, N^6-benzyladenosine]	effectively inhibited Stat5a dimerization
OC[C@H]1O[C@@H](n2ccc3c(NCc4ccccc4)ncnc32)[C@H](O)[C@@H]1O [NBPP, N-(phenylmethyl)-7-β-D-ribofuranosyl-7H-pyrrolo[2,3-d]pyrimidin-4-amine]	effectively inhibited Stat5a dimerization
